Measurements published in patent US10022440B2, “Materials and methods for modulating immune responses” (UNIVERSITY OF FLORIDA RESEARCH FOUNDATION, INCORPORATED, priority 2011, dated 2018).

Columns and labels:
splenocytes = assay: In vitro migration assay toward GM-CSF, splenocytes; format: cell-based, mouse; conditions: for increase in cell migration: after 24 hrs, in the presence of GM-CSF, n=3 per group
Description: (§1) An in vitro migration assay was performed to evaluate the migratory capacity of splenocytes and bone marrow cells toward GM-CSF. NOD, non-obese resistant (NOR), and C57/BL6 (n=3 per group) mouse cells were used in this assay.

whole bone marrow cells = assay: In vitro migration assay toward GM-CSF, bone marrow cells; format: cell-based, mouse; conditions: for increase in cell migration: after 24 hrs, in the presence of GM-CSF, n=3 per group
Description: as §1

GM-CSF
increase in cell migration (splenocytes; C57/BL6 splenocytes): 100%
migration ratios with or without GM-CSF (splenocytes; NOD splenocytes, p<0.05): no difference
increase in cell migration (splenocytes; NOR splenocytes): 100%
increase in cell migration (whole bone marrow cells; C57/BL6 whole bone marrow cells): 100%
cell migration (whole bone marrow cells; NOD bone marrow cells, compared with NOR and C57/BL6 bone marrow cells): migrated in a similar manner
increase in cell migration (whole bone marrow cells; NOR whole bone marrow cells): 100%
